According to patent publication US11840527B2, “Non-fused thiophene derivatives and their uses” (ENYO PHARMA, priority 2018, dated 2023):

Assays:
[1] = system: H1N1 (influenza A/New Caledonia/20/99); test: Antiviral effect on A549 cells infected with H1N1; type: cell-based, H1N1 A/New Caledonia/20/99 virus; settings: Influenza A virus, MOI 0.1, 48 h post-infection, MUNANA neuraminidase readout
Outline: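 A549 cells dosed with test compounds over a concentration range and infected at once with clinical isolate H1N1 A/New Caledonia/20/99 (MOI 0.1) in DMEM with […] TPCK trypsin, 37 °C. At 48 h, supernatant neuraminidase activity measured with MUNANA substrate (1 h, 37 °C); 4-MU fluorescence at ex 365/em 450 nm.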

[2] = molecular target: T1, CISD1 Gene Product (mitoNEET) (Homo sapiens, UniProt Q9NZ45); test: Stability of Fe-S cluster binding of purified NEET protein (absorbance 458 nm); type: biochemical
T1 sequence (Q9NZ45 33-108 limits assumed): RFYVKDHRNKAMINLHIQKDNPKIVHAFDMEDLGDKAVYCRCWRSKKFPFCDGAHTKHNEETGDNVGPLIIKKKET
Method: (§1) The modulator effect on the NEET proteins encoded by human CISD1, CISD2, and CISD3 genes by the compounds of the invention has been tested and is reported below. Particularly, the biochemical function of the NEET proteins is measured by the stability of Fe—S cluster binding of the purified NEET proteins.
(§2) The Fe—S cluster binding capacity of NEET proteins is known to be coordinated by four amino-acids in a stretch of 16 (three Cysteine and one Histidine). As the lability of the Fe—S cluster of NEET proteins is sensitive to the environment, cluster stability measurements are one of the measures of interactions of NEET proteins with small molecules and compounds. NEET protein/2Fe-2S cluster stability can be assessed by monitoring the decay in absorbance of its characteristic 458-nm peak (characteristic of the oxidized 2Fe-2S cluster) over time. Each NEET protein (mitoNEET, NAF-1 and Miner 2) was tested for its Fe—S binding in the absence or presence of a compound according to the invention (see table 3 below). The rate of cluster release (time in minutes to achieve 50% loss of bound Fe—S cluster) was compared for each NEET protein in the presence of one of the compounds of the invention (in a 1:3 protein:compound molar ratio) relative to each protein alone.
(§3) At pH 6, all the three NEET proteins (mitoNEET, NAF-1 and Miner 2) have a characteristic rate of loss of the bound Fe—S cluster that can be measured by the decrease of absorbance at wavelength 458 nm over time, using a spectrophotometer. Thus, Bis-Tris buffer (100 mM Bis-Tris pH6, 100 mM Nacl) was used at pH 6 to dilute either DMSO (Blank sample: Bis-Tris Buffer pH 6, 66 μM DMSO), DMSO and one of the three NEET proteins (Control sample: Bis-Tris Buffer pH 6, 66 μM DMSO, 20 μM purified NEET protein) or DMSO, one of the three NEET proteins and a compound of the invention (Test sample: Bis-Tris Buffer pH 6, 66 μM DMSO, 20 μM purified NEET protein, 60 μM compound of the invention).
(§4) A reaction mix containing DMSO diluted in the Bis-Tris Buffer with or without a compound of the invention was prepared. The purified NEET protein was the last component added to the reaction mix which was then aliquoted into 4 replicates in 96 wells plates. The absorbance at wavelength 458 nm was taken at 5 minutes intervals at 37° C. with a spectrofluorimeter. The assay run time for CISD2 gene product (NAF-1) was 500 minutes and 180 minutes for both the CISD 1 gene product (mitoNEET) and the CISD3 gene product (Miner 2).
(§5) In addition to time monitoring, residual bound Fe—S cluster to NEET protein was measured at the final point of the spectrometry assay for each Test sample and compared to the Control sample data (in parenthesis table 3). This residual binding is measured by the differential percentage between the absorbance 458 nm at time zero and the absorbance 458 nm at the end of the experiment (i.e. respectively 500 or 180 minutes as described hereabove), showing the percentage of NEET protein still able to bind Fe—S cluster.
(§6) Analysis of the absorbance enables the time for which 50% loss of bound Fe—S cluster is reached (i.e. a 50% absorbance decrease at 458 nm) for each Test sample and each Control sample (in parenthesis table 3) to be determined. The data are then compared to determine whether the compound of the invention stabilizes or destabilizes the NEET protein/Fe—S cluster binding.
(§7) Stabilisers of Fe—S cluster binding by the NEET proteins slow the release of bound Fe—S (i.e. increase the time needed to reach 50% Fe—S cluster bound loss by more than 25% for the Test sample compared to the Control sample). As illustrated by table 3, at the concentrations tested, stabilisers of CISD1 Gene Product (mitoNEET) are the compounds #9, #18, #26, #2, #1, and #42. Stabilisers of CISD2 Gene Product (NAF-1) are the compounds #2, #1, and #40. Stabilisers of CISD3 Gene Product (Miner2) are the compounds #9, #18, #26, #2, #1, and #42.

[3] = molecular target: T2, CISD2 Gene Product (NAF-1) (Homo sapiens, UniProt Q8N5K1); test: as above; type: biochemical; settings: 60 μM compound
T2 sequence (Q8N5K1 57-135 limits assumed): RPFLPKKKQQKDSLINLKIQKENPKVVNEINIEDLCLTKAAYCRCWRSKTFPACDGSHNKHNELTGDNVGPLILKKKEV
Method: as §1, §2, §3, §4, §5, §6, §7

[4] = molecular target: T3, CISD3 Gene Product (Miner2) (Homo sapiens, UniProt P0C7P0); test: as above; type: biochemical
T3 sequence (P0C7P0 15-127): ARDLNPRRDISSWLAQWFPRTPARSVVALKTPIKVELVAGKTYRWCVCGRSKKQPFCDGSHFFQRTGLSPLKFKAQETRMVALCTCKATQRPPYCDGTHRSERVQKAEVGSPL
Method: as §1, §2, §3, §4, §5, §6, §7

NFκB = NFκB reporter assay, TNFα stimulation of A549 reporter cells; type: cell-based; settings: Homo sapiens; A549 NFκB-NanoLuciferase reporter cells, 4 ng/ml TNFα, 6 hours
Excerpt: Compounds of the present invention have been tested for their capacity to inhibit NFκB.
The NFκB reporter construct was made by cloning 5 NFκB responsive elements upstream of a NanoLuciferase reporter gene flanked by AAVS1 genomic sequences.
NFκB Responsive element fused with NanoLuciferase and SV40 late Poly(A) signal was amplified from pNL3.2-NFκB-Nluc (Promega) using NFκB-NLUC-F and NFκB-NLUC-R primers and inserted by Infusion (TaKaRa) in AAVS1 SA-2A-puro-pA donor plasmid (Hockemeyer et al, Nat Biotechnol. 2009, 27, 851-7) digested by Sall. pCRISPR AAVS1-T2 expressing a guide RNA (gRNA) to target human AAVS1 (T2 target sequence) was constructed by inserting AAVS1-T2A hybridized primers in pLentiCRISPR v2-blast (Sanjana et al, Nat Methods. 2014, 11, 783-4) digested by Bsmb1.
A549 cells were transfected by the plasmids and puromycine selected for 5 days (1 μg mL-1). Then clones were obtained by limiting dilution and selected to maximize TNFα dependent NFkB-NanoLuciferase induction.
The reporter cells were seeded on a 96-well plate for overnight with DMEM including 10% FBS. Test compounds were added at varying concentrations. The cells then were treated with 4 ng/ml TNFα (Peprotech, ref E251) in DMEM+10% FBS. NanoGlo luciferase assay (Promega) was carried out 6 hours later. Luminescence was measured using a Spark 20M spectrofluorimeter (Tecan). Values were normalized to the luminescence measured in untreated cells.

Structure (SMILES): O=C(Nc1sc(Cl)c(C2CCCC2)c1C(=O)O)c1ccccc1 [Compound #18, 2-Benzamido-5-chloro-4-cyclopentyl-thiophene-3-carboxylic acid]
- IC50 [1]: 64.8 nM
- Residual cluster bound at end of experiment (Percentage Absorbance 458 nm at time zero) ([2]; at 180 minutes, 60 μM compound, vehicle control 16%): 52% (16%)
- Stabiliser of Fe—S cluster binding (time to 50% loss increased by more than 25% vs control) ([2]; at the concentrations tested): stabilisers
- Time (in minutes) to achieve 50% loss of bound cluster (Absorbance 458 nm) ([2]; pH 6, 37° C., 20 μM protein, 60 μM compound, run time 180 minutes, vehicle control 80): during 180 minutes
- Residual cluster bound at end of experiment (Percentage Absorbance 458 nm at time zero) ([3]; at 500 minutes, vehicle control 3%): 38% (3%)
- Time (in minutes) to achieve 50% loss of bound cluster (Absorbance 458 nm) ([3]; pH 6, 37° C., 20 μM protein, run time 500 minutes, vehicle control 310): 240 (310) minutes
- Residual cluster bound at end of experiment (Percentage Absorbance 458 nm at time zero) ([4]; CISD3 gene product, at 180 minutes, 60 μM compound, vehicle control (DMSO) 11%): 69% (11%)
- Stabiliser of Fe—S cluster binding (time to 50% loss increased by more than 25% vs control) ([4]; Miner2, at the concentrations tested): Stabilisers
- Time (in minutes) to achieve 50% loss of bound cluster (Absorbance 458 nm) ([4]; Miner2, pH 6, 37° C., 20 μM protein, 60 μM compound, run time 180 minutes, vehicle control 60): during 180 minutes
- EC50 (NFκB): 1100 nM
